Test results reported in patent US20240376094A2, “SELECTIVE BCL-XL PROTAC COMPOUNDS AND METHODS OF USE” (Les Laboratoires Servier, priority 2021, published 2024).

Legend:
Format in all cases: cell-based
Bcl-xL = biological target: T1, Bcl-xL (Homo sapiens, UniProt Q07817); assay: HCT116 Bcl-xL degradation, capillary-based immunoassay (WES); settings: for DC50: HCT116, 24 h, 9-point serial dilution; for remaining activity at 0.01 µM / remaining activity at 0.1 µM: HCT-116, 24 h, % of untreated cells; for remaining activity at 0.01 µM: HCT116, 10 nM; for remaining activity at 0.1 µM: HCT116, 100 nM
T1 construct: Measured levels of Bcl-xL protein of HCT116 cells treated with the tested compounds; host or cells: HCT116
T1 sequence (Q07817 whole entry): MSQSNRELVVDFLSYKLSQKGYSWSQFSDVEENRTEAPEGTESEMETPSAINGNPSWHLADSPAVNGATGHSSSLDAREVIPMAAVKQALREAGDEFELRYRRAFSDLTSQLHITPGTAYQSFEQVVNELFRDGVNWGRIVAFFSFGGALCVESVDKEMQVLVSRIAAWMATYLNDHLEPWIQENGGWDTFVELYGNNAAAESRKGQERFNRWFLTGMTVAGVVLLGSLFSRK
Summary of the method: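 Bcl-xL protein level by capillary WES immunoassay in HCT116 lysates, as % of untreated after cofilin normalization. Compound exposure was 24 h at 10 and 100 nM and/or a 9-point series, in quadruplicate. Four-parameter fitting gave the DC50.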

MOLT-4 cells = assay: MOLT-4 cell viability, MTT assay; settings: Homo sapiens, MOLT-4, 48 h
Description: The MTT colorimetric assay is based on the mitochondrial reduction of tetrazolium salt by living cells. The viable cell number is proportional to the production of formazan salts, which can be read spectrophotometrically at 540 nm. The CTG luminescent assay (CellTiter GLO, Promega) is based on a reagent which lyses cells and measures total adenosine triphosphate (ATP) content. The viable cell number is proportional to the production of ATP.
MOLT-4 cells were purchased from ATCC and cultivated in RPMI 1640 supplemented with 10% heat inactivated fetal bovine serum, penicillin (100 IU/mi), streptomycin (100 μg/ml) and L-glutamine (2 mM). Cells were cultured at 37° C. in a humidified atmosphere containing 5% […].
For MTT assay, cells were seeded in 96 microwell plates (150 μL per well) and exposed to the compounds for 48 h (3.16 fold serially diluted; 9 concentrations each, triplicates). At the end of incubation time, 15 μL of MTT solution (5 mg/ml) were added per well and the cells were incubated for another 4 h. Then, 100 μL of 10% Sodium Dodecyl Sulfate (SDS)/HCl 10 mM were added per well and the plate was incubated overnight, before measurement of optical density at 540 nm.
IC50, were calculated using standard four-parametric curve fitting. IC50 is defined as the compound concentration at which the MTT or CTG signal is reduced to 50% of that measured for the control. Results shown in Table 14 represent the mean of at least 2 independent experiments.

NCI-H1650 = assay: CellTiter-Glo 3D proliferation assay, NCI-H1650 spheroids; settings: Homo sapiens, NCI-H1650, 120 h, 5 days; for Emax: read-out: NCI-H1650 Span (Amax)
Description: (§1) The BCL-xL degrader compounds were tested against two endogenous cancer cell lines: • COR-L105: ECACC No. 92031918 cultured in RPMI-1640+10% FBS • NCI-H1650: (ATCC No. CRL-5883 cultured in RPMI-1640+10% FBS
(§2) The ability of the BCL-xL degrader low molecular weight compounds to inhibit cell proliferation and survival was assessed using the Promega CellTiter-Glo® proliferation assay.
(§3) Cell lines were cultured in media that is optimal for their growth at 5% CO2, 37° C. in a tissue culture incubator. Prior to seeding for the proliferation assay, the cells were split at least 2 days before the assay to ensure optimal growth density. On the day of seeding, adherent cells were lifted off tissue culture flasks using 0.25% trypsin. Cell viability and cell density were determined using a cell counter (Vi-Cell XR Cell Viability Analyzer, Beckman Coulter). Cells with higher than 85% viability were seeded for the assay.
(§4) The COR-105 cell line was seeded in white, clear bottom 384-well TC treated plates (Corning cat. #3765). Cells were seeded at a density of 1,000 cells per well in 45 μL of standard growth media. Plates were incubated at 5% CO2, 37° C. overnight in a tissue culture incubator. The NCI-H1650 cell line was seeded in black, clear round bottom 384-well ultra-low attachment spheroid microplates (Corning cat. #3830). Cells were seeded at a density of 3,000 cells per well in 45 uL of standard growth media. Plates were spun in a centrifuge for 5 minutes and 1,000 RPM. Plates were incubated at 5% CO2, 37° C. for 72 hours in a tissue culture incubator.
(§5) On the day of dosing, BCL-xL degrader low molecular weight compounds were prepared at 1 OX in standard growth media. The prepared drug treatments were then added to the cells resulting in final concentrations of 0.508 nM-10 μM and a final volume of 50 μL per well. Each drug concentration was tested in quadruplets. Plates were incubated at 5% CO2, 37° C. for 5 days in a tissue culture incubator.
(§6) For COR-L105 plates, cell viability was assessed through the addition of 25 μL of CellTiter Glo® (Promega, cat #G7573), a reagent which lyses cells and measures total adenosine triphosphate (ATP) content. Plates were incubated at room temperature for 10 minutes to stabilize luminescent signals prior to reading with a luminescence reader (EnVision Multilabel Plate Reader, PerkinElmer). For NCI-H1650 plates, cell viability was assessed through the addition of 40 μL of CellTiter Glo® 3D Cell Viability Assay substrate (Promega, cat #G9681), a reagent which lyses cells and measures total adenosine triphosphate (ATP) content. Wells were mixed thoroughly and plates were incubated at room temperature for 30 minutes to stabilize luminescent signals prior to reading using a luminescence reader (EnVision Multilabel Plate Reader, PerkinElmer).
(§7) To evaluate the effect of the drug treatments, luminescent counts from wells containing untreated cells (100% viability) were used to normalize treated samples. A variable slope model was applied to fit a nonlinear regression curve to the data in GraphPad PRISM version 7.02 software. IC50 and Amax values were extrapolated from the resultant curves. The concentrations of treatment required to inhibit 50% of cell growth or survival (IC50) were calculated with representative IC50 values of the cell lines tested summarized in Table 11.

COR-L105 = assay: CellTiter-Glo proliferation assay, COR-L105; settings: Homo sapiens, COR-L105, 120 h, COR-L105, 5 days; for Emax: read-out: COR-L105 Span (max)
Description: as §1, §2, §3, §4, §5, §6, §7

[1] = tested on: EBC-1 lung cancer cell line; assay: EBC-1 cell proliferation, CellTiter-Glo assay; settings: Homo sapiens, 120 h; Ebc-1 cell viability, CTG assay, 5 days of treatment; read-out: CTG 5 day Ebc1 GI50
Summary of the method: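 CellTiter-Glo read-out after 5-day compound treatment, normalised to untreated cells, with GI50 derived by four-parameter logistic regression. Ten concentrations spanning 0.508 nM–10 μM were added to 1000 EBC-1 cells per well the day after seeding. Assays required at least one cell doubling versus Day 0.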

HiBiT-tagged BCL-xL = biological target: T2, HiBiT-tagged BCL-xL (Homo sapiens, UniProt Q07817); assay: NCI-H1650 BCL-xL protein levels, Nano-Glo HiBiT Lytic Detection; settings: NCI-H1650 expressing HiBiT-tagged BCL-xL, overnight incubation, read-out: Bcl-xl HIBIT NCIH1650 DC50
T2 construct: expressed in transfected cells; host or cells: NCI-H1650 (ATCC No. CRL-5883), engineered HiBiT cell line
T2 sequence (Q07817 whole entry): as above
Summary of the method: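 HiBiT luminescence after cell lysis with LgBiT/furimazine reagent reported BCL-xL levels, expressed relative to untreated wells and fitted with a four-parameter logistic equation. Engineered NCI-H1650 cells were exposed overnight at 37° C to compound at final 0.508 nM-10 μM (10 points, triplicate plates).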

Row | Compound | DC50 (Bcl-xL) | remaining activity at 0.01 µM (Bcl-xL) | remaining activity at 0.1 µM (Bcl-xL) | IC50 (MOLT-4 cells) | IC50 (NCI-H1650) | GI50 [1] | DC50 (HiBiT-tagged BCL-xL) | Emax (NCI-H1650) | IC50 (COR-L105) | Emax (COR-L105)
1 | Cc1ncsc1-c1ccc(CNC(=O)[C@@H]2C[C@@H](O)CN2C(=O)[C@@H](NC(=O)CCCC(=O)N2CCN(CC#Cc3ccc(OCCCc4sc(N5CCCc6c5nnc(Nc5nc7ccccc7s5)c6C)nc4C(=O)O)c(F)c3)CC2)C(C)(C)C)cc1 [Example 18, 2-[3-(1,3-benzothiazol-2-ylamino)-4-methyl-6,7-dihydro-5H-pyrido[2,3-c]pyridazin-8-yl]-5-[3-[2-fluoro-4-[3-[4-[5-[[(1S)-1-[(2S,4R)-4-hydroxy-2-[[4-(4-methylthiazol-5-yl)phenyl]methylcarbamoyl]pyrrolidine-1-carbonyl]-2,2-dimethyl-propyl]amino]-5-oxo-pentanoyl]piperazin-1-yl]prop-1-ynyl]phenoxy]propyl] thiazole-4-carboxylic acid] | 6.6 nM | 52% | 52% | 2.72 nM |  |  |  |  |  | 
2 | Cc1ncsc1-c1ccc(CNC(=O)[C@@H]2C[C@@H](O)CN2C(=O)[C@@H](NC(=O)C2(F)CC2)C(C)(C)C)c(OCc2ccc(CN3CCN(CC#Cc4ccc(OCCCc5sc(N6CCCc7c6nnc(Nc6nc8ccccc8s6)c7C)nc5C(=O)O)c(F)c4)CC3)cc2)c1 [Example 58, 2-(3-(benzo[d]thiazol-2-ylamino)-4-methyl-6,7-dihydropyrido [2,3-c]pyridazin-8(5H)-yl)-5-(3-(2-fluoro-4-(3-(4-(4-((2-(((2S,4R)-1-((S)-2-(1-fluorocyclopropane-1-carboxamido)-3,3-dimethylbutanoyl)-4-hydroxypyrrolidine-2-carboxamido)methyl)-5-(4-methylthiazol-5-yl)phenoxy)methyl)benzyl)piperazin-1-yl)prop-1-yn-1-yl)phenoxy)propyl)thiazole-4-carboxylic acid] |  |  |  |  | 188 nM |  |  | 98.2% | 481 nM | 85.5%
3 | Cc1ncsc1-c1ccc(CNC(=O)[C@@H]2C[C@@H](O)CN2C(=O)[C@@H](NC(=O)C2(F)CC2)C(C)(C)C)c(OCCN(C)CC(=O)N2CCN(CC#Cc3ccc(OCCCc4sc(N5CCCc6c5nnc(Nc5nc7ccccc7s5)c6C)nc4C(=O)O)c(F)c3)CC2)c1 [Example 59, 2-(3-(benzo[d]thiazol-2-ylamino)-4-methyl-6,7-dihydropyrido [2,3-c]pyridazin-8(5H)-yl)-5-(3-(2-fluoro-4-(3-(4-(N-(2-(2-(((2S,4R)-1-((S)-2-(1-fluorocyclopropane-1-carboxamido)-3,3-dimethylbutanoyl)-4-hydroxypyrrolidine-2-carboxamido)methyl)-5-(4-methylthiazol-5-yl)phenoxy)ethyl)-N-methylglycyl)piperazin-1-yl)prop-1-yn-1-yl)phenoxy)propyl)thiazole-4-carboxylic acid] |  |  |  |  | 119 nM |  |  | 77.9% | 2430 nM | 105%

Now from value to compound, other results behind:

Row | DC50 (Bcl-xL) | remaining activity at 0.01 µM (Bcl-xL) | remaining activity at 0.1 µM (Bcl-xL) | IC50 (MOLT-4 cells) | IC50 (NCI-H1650) | GI50 [1] | DC50 (HiBiT-tagged BCL-xL) | Compound | Emax (NCI-H1650) | IC50 (COR-L105) | Emax (COR-L105)
4 | > 316 nM | 48% | 43% | 0.398 nM |  |  |  | Cc1c(Nc2nc3ccccc3s2)nnc2c1CCCN2c1ccc(-c2cnn(CC34CC5(C)CC(C)(C3)CC(OCCN(C)CCCCCCCCOc3ccc6c(c3)C(=O)N(C3CCC(=O)NC3=O)C6=O)(C5)C4)c2C)c(C(=O)O)n1 (centres unmarked) [Example 10, 6-[3-(1,3-benzothiazol-2-ylamino)-4-methyl-6,7-dihydro-5H-pyrido[2,3-c]pyridazin-8-yl]-3-[1-[[3-[2-[8-[2-(2,6-dioxo-3-piperidyl)-1,3-dioxo-isoindolin-5-yl]oxyoctyl-methyl-amino]ethoxy]-5,7-dimethyl-1-adamantyl]methyl]-5-methyl-pyrazol-4-yl]pyridine-2-carboxylic acid] |  |  | 
5 |  |  |  |  | 258 nM | 5 nM | 18 nM | Cc1ncsc1-c1ccc(CNC(=O)[C@@H]2C[C@@H](O)CN2C(=O)[C@@H](NC(=O)C2(F)CC2)C(C)(C)C)c(OCCCCCCCCCN2CCN(CC#Cc3ccc(OCCCc4sc(N5CCCc6c5nnc(Nc5nc7ccccc7s5)c6C)nc4C(=O)O)c(F)c3)CC2)c1 [Example 57, 2-(3-(benzo[d]thiazol-2-ylamino)-4-methyl-6,7-dihydropyrido [2,3-c]pyridazin-8(5H)-yl)-5-(3-(2-fluoro-4-(3-(4-(9-(2-(((2S,4R)-1-((S)-2-(1-fluorocyclopropane-1-carboxamido)-3,3-dimethylbutanoyl)-4-hydroxypyrrolidine-2-carboxamido)methyl)-5-(4-methylthiazol-5-yl)phenoxy)nonyl)piperazin-1-yl)prop-1-yn-1-yl)phenoxy)propyl)thiazole-4-carboxylic acid] | 126% | 3630 nM | 72.5%
6 |  |  |  | 358 nM |  |  |  | Cc1cc(N(CCCCNC(=O)CCOCCOCCOCCOCCNc2cccc3c2C(=O)N(C2CCC(=O)NC2=O)C3=O)c2nc(C(=O)O)c(CCCOc3ccc(C#CCN(C)C)cc3F)s2)nnc1Nc1nc2ccccc2s1 (centres unmarked) [Example 149, 2-[[6-(1,3-benzothiazol-2-ylamino)-5-methyl-pyridazin-3-yl]-[4-[3-[2-[2-[2-[2-[[2-(2,6-dioxo-3-piperidyl)-1,3-dioxo-isoindolin-4-yl]amino]ethoxy]ethoxy]ethoxy]ethoxy]propanoylamino]butyl]amino]-5-[3-[4-[3-(dimethylamino)prop-1-ynyl]-2-fluoro-phenoxy]propyl]thiazole-4-carboxylic acid] |  |  | 
